From publication PMC9666555, “Genuine selective caspase-2 inhibition with new irreversible small peptidomimetics” (Cell Death & Disease, 2022)
Several values for one entry are separate records, joined by “and”; a condition that tells them apart may be missing. Equal values may be shown once. Non-standard residues stand in square brackets, D forms with d. Residues, ends and D or L forms follow the SMILES beside them. ξ: configuration not given here. *: point of attachment. ξTHIQ1CO(6-Me) = Cc1ccc2c(c1)CCNC2C(=O)O; X1 = O=C(O)CC(N*)C(=O)COc1c(F)cccc1F; Quinaldoyl = O=C(c1ccc2ccccc2n1)*

Key:
[1] = target: T1, human active recombinant caspase-2 (Homo sapiens, UniProt P42575); assay: In vitro caspase activity and inhibition assay (IC50), Caspase-2; format: biochemical
T1 sequence (P42575 170-325 limits assumed): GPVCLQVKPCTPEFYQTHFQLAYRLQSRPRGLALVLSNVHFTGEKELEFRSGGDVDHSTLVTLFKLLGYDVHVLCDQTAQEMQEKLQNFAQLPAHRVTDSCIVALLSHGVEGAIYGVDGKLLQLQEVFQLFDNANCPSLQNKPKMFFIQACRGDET
T1 sequence (P42575 348-452 limits assumed): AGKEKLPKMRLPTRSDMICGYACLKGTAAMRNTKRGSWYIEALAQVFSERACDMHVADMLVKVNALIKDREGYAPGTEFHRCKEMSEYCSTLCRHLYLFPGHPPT
Method: Stock solutions were stored at −80 °C.

recombinant human Casp2 = target: T2, recombinant human Casp2 (Homo sapiens, UniProt P42575); assay: Enzyme mechanistic studies (Ki, k3, k3/KI), Caspase-2; format: biochemical
T2 sequence (P42575 170-325 limits assumed): T1 sequence (P42575 170-325 limits assumed)
T2 sequence (P42575 348-452 limits assumed): T1 sequence (P42575 348-452 limits assumed)
Method: (§1) For reversible inhibitors, the mechanisms of inhibition were determined by varying substrate and inhibitor concentrations and using Lineweaver−Burk representations to determine the inhibition constants Ki of competitive inhibitors (Ki = [E][I]/[EI]). For suicide inhibitors, inactivation can be represented by the minimum kinetic scheme (Eq. 2), where E and I are the free forms of enzyme and inhibitor, E * I a kinetic chimera of the Michaelis complex and E − I the covalent complex (inactivated enzyme).2 E+I⇄KIE*I→k3E−I
(§2) KI and k3 are the kinetic constants characterizing the inactivation process and the k3/KI ratio is an index of the inhibitory potency. The first-order rate constant, k3, and the apparent dissociation constant, KI, were determined for Caspase-2 and -3 using the progress curve method. Briefly, the enzyme activities were measured continuously for 120 min. To determine the kinetic parameters, progress curves were obtained at several inhibition concentrations using fixed substrate concentration. The product released for each inhibitor concentration was plotted versus the time following Eq. 3 where the constant π depended on [I]’, a modified inhibitor concentration due to substrate competition, according to Eq. 4. [I]’ is defined by Eq. 5, where KM was Michaelis constant for the enzymatic hydrolysis of the appropriate fluorogenic substrate. The ratio k3/KI was obtained by fitting the experimental data to the equations (F.U., fluorescence unit):3 F.U.=∫0tvidt+F.U0−vo×e^−π×t/π+F.U.0 4 π=k3×[I]^′/KI+[I]^′ 5 [I]^′=[I]/1+S/KM
Linear and nonlinear regression fits of the experimental data to the equations were performed with KaleidaGraph software. The experimental conditions were [Caspase-2]0 = 0.2 nM, [Ac-VDVAD-AMC]0 = 25 µM and [Caspase-3]0 = 0.1 nM, [Ac-DEVD-AMC]0 = 10 µM; [I]0 = 0–100 µM.

recombinant human Casp3 = target: T3, recombinant human Casp3 (Homo sapiens, UniProt P42574); assay: Enzyme mechanistic studies (Ki, k3, k3/KI), Caspase-3; format: biochemical; details: irreversible inhibitors, progress curve method
T3 sequence (P42574 29-175 limits assumed): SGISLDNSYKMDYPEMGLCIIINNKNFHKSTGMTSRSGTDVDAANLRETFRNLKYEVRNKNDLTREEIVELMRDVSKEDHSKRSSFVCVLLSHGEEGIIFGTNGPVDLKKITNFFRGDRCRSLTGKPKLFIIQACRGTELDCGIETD
T3 sequence (P42574 176-277 limits assumed): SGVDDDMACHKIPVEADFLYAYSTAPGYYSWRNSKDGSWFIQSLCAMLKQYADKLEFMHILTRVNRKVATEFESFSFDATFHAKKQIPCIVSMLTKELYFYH
Method: as §1, §2
Linear and nonlinear regression fits of the experimental data to the equations were performed with KaleidaGraph software.

Trypsin = assay: Non-caspase enzyme assay, Trypsin; format: biochemical, human; details: concentrations up to 10 µM
Method: (§3) Stock solutions were stored at −80 °C. […]
(§4) Non-caspase enzyme assays
(§5) The human pro- kallikrein-1 (pro-hK1) was activated in a buffer containing: Tris-HCl 50 mM, CaCl2 10 mM, NaCl 150 mM, Brij-35 0,05% pH 7,5. Human pro-kallikrein-6 and -8 (pro-hK6 and 8 were activated using Lysyl-endopeptidase (Wako- BioProducts®) at a 1/500 weight ratio, in a buffer containing 50 mM Tris and 0,05% Brij-35 (pH 8). Kinetics using non-caspase enzymes for selectivity studies were done according to the following conditions.
(§6) Enzymes Substrates Buffers
(§7) Cathepsine B (0.2 nM) z-RR-AMC 20 µM Acétate de sodium 0,1 M; EDTA 1mM ; […]
(§8) Cathepsine L (1.2 nM) RLR-AMC 25 µM Acétate de sodium 0,1 M; EDTA 1mM ; […]
(§9) Cathepsine D (0.1 nM) Mca-Gly-Ly s-Pro-Ile-Leu-Phe-Phe- Citrate de Sodium 0,1 M; EDTA 2 mM ; Arg-Leu-Lys(Dnp)-D-Arg-NH2 10 µM Brij-35 0,01%; pH 4 hK1 (4 nM) Boc-VPR-AMC 100µM Tris 50mM; Citrate 1M; Brij-35 0.05%; pH7 hK6 (2 nM ) Boc-QAR -AMC 100 µM Tris 50mM; Citrate 1M; Brij-35 0.05%; pH7 hK8 (1 nM) Boc-VPR-AMC 100µM Tris 50mM; Citrate 1M; Brij-35 0.05%; pH7
(§10) Thrombine (10 mU/mL) Boc-VPR-AMC 100µM Tris 50mM; Citrate 1M; Brij-35 0.05%; pH7 Plasmine (4 nM ) Boc-QAR -AMC 100µM Tris 50mM; Citrate 1M; Brij-35 0.05%; pH7 Trypsine (0.1 nM) Boc-QAR -AMC 100µM Tris 50mM; Citrate 1M; Brij-35 0.05%; pH7

Kallikrein-8 = target: T4, Kallikrein-8 (Homo sapiens, UniProt O60259); assay: Non-caspase enzyme assay, Kallikrein-8; format: biochemical; details: concentrations up to 10 µM
T4 construct: purchased R&D Systems 2025-SE-010
T4 sequence (O60259 33-260): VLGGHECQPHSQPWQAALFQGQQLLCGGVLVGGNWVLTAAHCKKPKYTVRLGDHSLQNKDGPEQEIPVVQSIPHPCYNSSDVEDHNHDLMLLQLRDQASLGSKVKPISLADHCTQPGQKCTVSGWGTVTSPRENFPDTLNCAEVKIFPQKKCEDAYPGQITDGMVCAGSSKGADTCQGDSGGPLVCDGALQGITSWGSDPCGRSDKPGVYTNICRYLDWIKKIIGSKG
Method: as §3, §4, §5, §6, §7, §8, §9, §10

[2] = system: Swiss mice hippocampal neurons; assay: Aβ oligomer-induced dendritic spine loss in hippocampal primary cultures; format: cell-based, mouse; details: 100 nM Aβ1-42 oligomers 6 h
Method: For the monoculture model (MBBT4 devices), 20 × 10^3 hippocampal neurons were seeded in each chamber. For the compartmentalized coculture model (neuronal diode in MBBT5 devices), 40 × 10^3 cortical cells and 15 × 10^3 hippocampal cells were seeded in each input chamber and output chamber, respectively. The culture medium was renewed every 5 days. Microfluidic chips were placed in Petri dishes containing 0.1% EDTA (Sigma) and incubated at 37 °C in a 5% CO2 atmosphere. In the neuronal diodes, cortical axons entered the microchannels and reached the hippocampi chamber in around 4–5 days. In both the monoculture and coculture systems, cells were cultured for 3 weeks to allow high dendrites and synapse density and intense electrical firing.
Cells were treated with caspase inhibitors and/or Aβ1–42 at 20 days in vitro. For the hippocampal monocultures, the culture medium was removed and replaced by fresh medium optionally containing 10 nM Aβ1–42 oligomers or monomers, with or without caspase inhibitors. After 6 h, cells were fixed, permeabilized, and subjected to immunolabelling. For cortico-hippocampal compartmentalized cocultures, the medium of the input chamber (cortical) was replaced by fresh medium optionally containing 100 nM Aβ1–42 oligomers or monomers, whereas the medium of the output (hippocampal) chamber was replaced by fresh medium optionally containing, or not, caspases inhibitors. […]
Immunostaining was performed directly in microfluidic chambers as described [38]. […] Images were analyzed using ImageJ software (NIH, Bethesda, MD, USA).
Synaptic disconnection was assessed as described [39] with slight modifications. Briefly, in hippocampal monocultures, synaptic disconnection was assessed through fluorescence microscopy by counting phalloidin clusters affixed to MAP2 and Bassoon. In cortico-hippocampal compartmentalized cocultures, synaptic disconnection was assessed by counting α-Synuclein presynaptic clusters affixed to MAP2-positive hippocampal dendrites. […] The images were similarly processed with ImageJ software before being used for quantification: the brightness/contrast of all control images were optimized manually to eliminate the background and to maximize the signal. The means of the minimum and maximum intensities were then calculated in the control condition and these settings were applied to all images. The brightness/contrast of all images was optimized manually to eliminate the background and maximize the intensity of the signal. α-synuclein/ MAP2 and Phalloidin/MAP2/Bassoon merges were then used for quantification. The number of spines was determined by counting individual clusters along ten dendritic regions (100 µm length each) in three independent experiments for every epitope. Only synapses detected on or near the neurites were included for analysis.

[3] = target: human recombinant Caspase-6 (Homo sapiens, UniProt P55212); assay: Additional enzyme kinetics, Caspase-6; details: concentrations up to 10 µM
human recombinant Caspase-6, sequence (P55212 24-179 limits assumed): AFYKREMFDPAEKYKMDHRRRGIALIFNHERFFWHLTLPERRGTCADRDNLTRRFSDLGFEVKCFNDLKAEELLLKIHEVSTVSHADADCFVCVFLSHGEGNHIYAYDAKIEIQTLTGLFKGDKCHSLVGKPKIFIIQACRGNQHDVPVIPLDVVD
human recombinant Caspase-6, sequence (P55212 194-293 limits assumed): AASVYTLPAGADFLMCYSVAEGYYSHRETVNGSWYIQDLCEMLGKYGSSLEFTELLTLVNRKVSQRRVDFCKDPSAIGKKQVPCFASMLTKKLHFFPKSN
Method: (§11) The human active recombinant Caspase-3 (#707-C3) was purchased from R&D Systems (Minneapolis, USA). […] Stock solutions were stored at −80 °C. […] Caspase inhibitors were solubilized in DMSO at 10 mM and stored at −80 °C.
(§12) Initial velocity (V0) was determined from the linear portion of the progress curve. The composition of the activity buffer was: 20 mM HEPES, pH 7.4; 0.1% CHAPS, 5 mM DTT, 2 mM EDTA; 800 mM sodium succinate for Caspase-2 (0.2 nM) with 25 µM of Ac-VDVAD-7-amino-3-methylcoumarin (AMC) and 20 mM HEPES, pH 7.4; 0.1% CHAPS, 5 mM DTT, 2 mM EDTA; supplemented with 1 mg/mL of stabilizing agent bovine serum albumin (BSA) for Caspase-3 (0.1 nM) with 10 μM of Ac-DEVD-AMC. Compounds (0.001–100 µM) were tested in duplicate for each inhibitor concentration to detect their inhibitory potential. Enzymes and compounds were incubated for 30 min before initiating enzymatic reaction by adding substrate. Initial rates determined in control experiments (V0) were considered as 100% of the caspase activity; initial rates that were below 100% in the presence of tested compound (Vi) were considered as inhibition. The inhibitory activity of compounds was expressed as IC50 (Inhibitor concentration giving 50% inhibition). The values of IC50 were calculated by fitting the experimental data using Mars data Analysis 2.0 and KaleidaGraph software.1 %Inhibition=1001−Vi/V0=100I0/IC50+I0

[4] = target: human recombinant Caspase-1 (Homo sapiens, UniProt P29466); assay: Additional enzyme kinetics, Caspase-1; details: concentrations up to 10 µM
human recombinant Caspase-1, sequence (P29466 120-297 limits assumed): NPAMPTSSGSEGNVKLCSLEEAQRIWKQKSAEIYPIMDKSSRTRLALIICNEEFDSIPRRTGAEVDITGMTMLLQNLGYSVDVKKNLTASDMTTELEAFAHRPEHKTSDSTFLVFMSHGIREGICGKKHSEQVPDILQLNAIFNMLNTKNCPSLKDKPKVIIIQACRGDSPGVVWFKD
human recombinant Caspase-1, sequence (P29466 317-404 limits assumed): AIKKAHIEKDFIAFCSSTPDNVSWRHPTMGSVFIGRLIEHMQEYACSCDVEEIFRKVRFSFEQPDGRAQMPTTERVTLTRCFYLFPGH
Method: as §11, §12

[5] = irreversible inhibitors, progress curve method

| Structure (SMILES) | IC50 [1] [nM] | selectivity: inactivation rate (k3/Ki) on Casp2 as compared to Casp3 (recombinant human Casp2) | Casp2 k3 (recombinant human Casp2; [5]) | Casp2 k3/KI (recombinant human Casp2; [5]) | KI (inactivation) (recombinant human Casp2; [5]) [nM] | Casp3 k3 (recombinant human Casp3) | Casp3 k3/KI (recombinant human Casp3) | KI (inactivation) (recombinant human Casp3) [nM] | Ki (recombinant human Casp2; irreversible inhibitors, progress curve method, read-out: Casp2 KI) [nM] | Ki (recombinant human Casp3; read-out: Casp3 KI) [nM] | effect on Trypsin (Trypsin) | effect on Kallikrein-8 (Kallikrein-8) | prevention of dendritic spine loss induced by oligomeric Aβ ([2]; pretreatment at 0.1 µM) [%] | prevention of dendritic spine loss induced by oligomeric Aβ ([2]; pretreatment at 1 µM) [%] | prevention of dendritic spine loss induced by oligomeric Aβ ([2]; pretreatment at 10 µM) [%] | effect on Caspase-6 [3] | effect on Caspase-1 [4] |
| --- | --- | --- | --- | --- | --- | --- | --- | --- | --- | --- | --- | --- | --- | --- | --- | --- | --- |
| Cc1ccc2c(c1)CCN(C(=O)[C@@H](NC(=O)[C@H](CC(=O)O)NC(=O)[C@@H](NC(=O)c1ccc3ccccc3n1)C(C)C)C(C)C)C2C(=O)NC(CC(=O)O)C(=O)COc1c(F)cccc1F (stereo partly drawn) [LJ2, Quinolin-2-carbonyl-VDV-(methyl-isoquinolyl)-D-CH2-O(2,6F2)Ph] (Quinaldoyl-VDV[ξTHIQ1CO(6-Me)]-X1) | 0.37 ± 0.01 | 25 times and ~ 25 times | 4,91 ms^−1 | ~ 1,322,875 M^−1 s^−1 and 1 322 875 M^−1 s^−1 and ~ 1,300,000 M^−1 s^−1 | 3.68 | 2,37 ms^−1 | 51,992 M^−1 s^−1 and 51 992 M^−1 s^−1 | 47 | – | – | – | – | – | – | – | – | – |
| CC(C)[C@H](NC(=O)c1ccc2ccccc2n1)C(=O)N[C@@H](CC(=O)O)C(=O)N[C@H](C(=O)N1CC[C@H](CC(C)(C)C)[C@@H]1C(=O)NC(CC(=O)O)C(=O)COc1c(F)cccc1F)C(C)C (stereo partly shown) [LJ3a] | – | ~1000 times and 946 times | 5 ± 7 × 10^−4 ms^−1 | 1,708,996 M^−1 s^−1 | – | 0.7 ± 9 × 10^−5 ms^−1 | 1807 M⁻¹ s⁻¹ | – | 2.8 ± 0.8 | 400 ± 93.3 | very limited or no effect | very limited or no effect | 59.63 | 89.29 | 97.5 | very limited or no effect | very limited or no effect |
